Like-named read-outs stand apart in the source and are kept apart here.

The test deals with T1, human recombinant COX2 (hCOX2) (UniProt P35354).
T1 sequence (P35354 1-604): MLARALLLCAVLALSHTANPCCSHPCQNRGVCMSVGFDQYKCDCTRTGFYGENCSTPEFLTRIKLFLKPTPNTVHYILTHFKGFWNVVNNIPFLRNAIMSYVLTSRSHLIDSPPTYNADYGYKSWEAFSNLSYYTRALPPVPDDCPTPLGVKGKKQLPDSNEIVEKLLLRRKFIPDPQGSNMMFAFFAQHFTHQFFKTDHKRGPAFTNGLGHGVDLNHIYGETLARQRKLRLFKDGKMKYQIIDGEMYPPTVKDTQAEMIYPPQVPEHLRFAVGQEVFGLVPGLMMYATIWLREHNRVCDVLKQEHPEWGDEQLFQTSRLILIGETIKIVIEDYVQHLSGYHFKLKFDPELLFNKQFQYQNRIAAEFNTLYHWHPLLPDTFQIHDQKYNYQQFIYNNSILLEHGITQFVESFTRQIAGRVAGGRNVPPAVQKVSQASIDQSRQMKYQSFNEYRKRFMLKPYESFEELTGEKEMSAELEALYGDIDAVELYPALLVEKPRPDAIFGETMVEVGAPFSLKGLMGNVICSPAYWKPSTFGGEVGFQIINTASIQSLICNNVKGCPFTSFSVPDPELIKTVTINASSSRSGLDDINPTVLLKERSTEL
The test is described as follows: LCMS-based COX2 enzymatic inhibition assay (PGE2 quantification). The test is classed as biochemical. Also on record: COX2 2 minutes pge2/pge2d4 area ratio Avg; other: 2 minutes; readout pge2/pge2d4 area ratio; average; COX2 2 minutes pge2/pge2d4 area ratio Avg; LLE; average LLE; COX2 2 minutes pge2 area (counts) Avg; readout pge2 area (counts); other: 2 min; "ovine COX2 (oCOX2), human recombinant COX2 (hCOX2)". Conditions: for IC50: average. Summed up: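 Ovine COX-1 (0.1 μg) or human recombinant COX2 (0.2 μg) in 100 mM Tris.HCl pH 8.0 with hematin and epinephrine, preincubated with inhibitor 10 min at 37 °C. Reaction with 5 μM arachidonic acid stopped after 2 min with HCl; PGE2 quantified by LC-MS-MS. IC50 from 12 concentrations in triplicate.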

Setting [1] is: 2 minutes, readout pge2/pge2d4 area ratio, average LLE.
Where [2] appears, read: 2 minutes, readout pge2/pge2d4 area ratio, read-out: COX2 2 minutes pge2/pge2d4 area ratio Avg. IC50.
The mark [3] stands for this setting: 2 minutes, readout pge2 area (counts), average LLE.
The mark [4] stands for this setting: 2 minutes, readout pge2 area (counts), read-out: COX2 2 minutes pge2 area (counts) Avg. IC50.
The mark [5] stands for this setting: 10 minutes, readout pge2 area (counts), average LLE.
The mark [6] stands for this setting: 10 minutes, readout pge2 area (counts), read-out: COX2 10 minutes pge2 area (counts) Avg. IC50.
Where [7] appears, read: read-out: COX2 2 minutes pge2/pge2d4 area ratio Avg. IC50 (microM), 2 minutes, readout pge2/pge2d4 area ratio.

As for `CS(=O)(=O)c1ccc(-c2cc(C(F)(F)F)nc(Oc3ccc(F)cc3)n2)cc1` [Compound 130], under setting [1], the “COX2 2 minutes pge2/pge2d4 area ratio Avg. LLE” value is on record as 2.661. The IC50 is, setting by setting: under setting [2], 0.153 µM; under setting [4], 0.21 µM; under setting [6], 0.00942 µM; (30 minutes, readout pge2 area (counts), read-out: COX2 30 minutes pge2 area (counts) Avg. IC50) 0.000242 µM. The “COX2 2 minutes pge2 area (counts) Avg. LLE” value (“COX2 2 minutes pge2 area” below) under setting [3] turned out to be 2.626. Moreover, under setting [5], the “COX2 10 minutes pge2 area (counts) Avg. LLE” value (shortened to “COX2 10 minutes pge2 area”) is given as 4.116. Further, the “COX2 30 minutes pge2 area (counts) Avg. LLE” value (30 minutes, readout pge2 area (counts), average LLE) is reported as 5.42.

As for `CS(=O)(=O)c1ccc(-c2nc(OCc3cccs3)ccc2F)cc1` [Compound 101], the “COX2 2 minutes pge2/pge2d4 area ratio Avg. LLE” value under setting [1] was 3.357. The IC50 turned out to be 0.0867 µM under setting [2] and 0.0772 µM under setting [4]. The “COX2 2 minutes pge2 area” value under setting [3] came to 3.332.

Consider `CO/N=C(/c1ccc2ccn(-c3ccc(S(C)(=O)=O)cc3)c2n1)c1cccs1` [Compound 214], for which the IC50 came to 1.51 µM under setting [2] and 1.19 µM under setting [4].

With `Cc1ccc(COc2cncc(-c3ccc(S(C)(=O)=O)cc3)n2)cc1` [Compound 309], the “COX2 2 minutes pge2 area” value under setting [3] is 2.514. In addition, under setting [7], the IC50 amounted to 5.2 µM.

For the molecule `Cc1cccc(COc2cncc(-c3ccc(S(C)(=O)=O)cc3)n2)c1` [Compound 285], under setting [1], the “COX2 2 minutes pge2/pge2d4 area ratio Avg. LLE” value worked out at 2.514. Besides, the “COX2 2 minutes pge2 area” value under setting [3] is 2.514. Moreover, the IC50 under setting [7] is 5.2 µM.

As to `CS(=O)(=O)c1ccc(-c2cc3nn(Cc4cccs4)cc3cn2)cc1` [Compound 325], the IC50 under setting [7] is 5.2 µM.

Take `COc1nc(NCc2cccs2)cc(-c2ccc(S(C)(=O)=O)cc2)n1` [Compound 156]: the “COX2 2 minutes pge2/pge2d4 area ratio Avg. LLE” value under setting [1] stood at 3.208. Moreover, the IC50 is, setting by setting: under setting [2], 0.332 µM; under setting [4], 0.327 µM; under setting [6], 0.0355 µM. Also, under setting [3], the “COX2 2 minutes pge2 area” value amounted to 3.204. Further, under setting [5], the “COX2 10 minutes pge2 area” value was found to be 4.189.

Take `C[C@H](Nc1cccc(-c2ccc(S(C)(=O)=O)cc2)n1)c1ccco1` (single isomer, unassigned) [Compound 89]: under setting [1], the “COX2 2 minutes pge2/pge2d4 area ratio Avg. LLE” value was 3.84. Moreover, the IC50 under setting [2] worked out at 0.0656 µM and the IC50 under setting [4] turned out to be 0.06 µM. The “COX2 2 minutes pge2 area” value under setting [3] is 3.875.

Turning to `CS(=O)(=O)c1ccc(-c2cncc(N3Cc4ccncc4C3)n2)cc1` [Compound 304], under setting [7], the IC50 was determined as 5.2 µM.

Consider `CS(=O)(=O)c1ccc(-c2cccc(C3CC3c3ccoc3)n2)cc1` (single isomer, unassigned) [Compound 314, 2-[2-(furan-3-yl)cyclopropyl]-6-(4-methanesulfonylphenyl)pyridine], for which the “COX2 2 minutes pge2 area” value under setting [3] was 2.024. For the same molecule, the IC50 (read-out: COX2 2 minutes pge2/pge2d4 area ratio Avg. IC50 (microM), 2 minutes, readout pge2/pge2d4 area ratio, 2 min) was 5.2 µM.

Take `CS(=O)(=O)c1ccc(-c2cncc(SC[C@@H]3CCCO3)n2)cc1` (single isomer, unassigned) [Compound 186]: under setting [1], the “COX2 2 minutes pge2/pge2d4 area ratio Avg. LLE” value worked out at 4.315. Also, the IC50 is 0.627 µM under setting [2] and 0.616 µM under setting [4]. Also, the “COX2 2 minutes pge2 area” value under setting [3] is given as 4.316.

For the molecule `CS(=O)(=O)c1ccc(-c2cncc(NC[C@@H]3CCCS3)n2)cc1` (single isomer, unassigned) [Compound 167], the “COX2 2 minutes pge2/pge2d4 area ratio Avg. LLE” value under setting [1] was 4.792. In addition, the IC50 under setting [2] amounted to 0.432 µM and the IC50 under setting [4] turned out to be 0.433 µM. Moreover, the “COX2 2 minutes pge2 area” value under setting [3] was found to be 4.782.

For the molecule `CC(C)COc1cncc(-c2ccc(S(C)(=O)=O)cc2)n1` [Compound 293], under setting [1], the “COX2 2 minutes pge2/pge2d4 area ratio Avg. LLE” value was determined as 3.394. Moreover, the “COX2 2 minutes pge2 area” value under setting [3] amounted to 3.394. Moreover, under setting [5], the “COX2 10 minutes pge2 area” value stood at 3.394. The IC50 under setting [7] was determined as 5.2 µM.

With `CC(=O)c1ncc(NCc2cccs2)nc1-c1ccc(S(C)(=O)=O)cc1` [Compound 248], the “COX2 2 minutes pge2/pge2d4 area ratio Avg. LLE” value under setting [1] is 3.159. In addition, the IC50 was 3.36 µM under setting [2] and 3.3 µM under setting [4]. In addition, the “COX2 2 minutes pge2 area” value under setting [3] is on record as 3.163.

Regarding `CC(C)CNc1cncc(-c2ccc(S(C)(=O)=O)cc2)n1` [Compound 178], the “COX2 2 minutes pge2/pge2d4 area ratio Avg. LLE” value under setting [1] came out at 4.69. The IC50 by setting is: under setting [2], 0.544 µM; under setting [4], 0.608 µM; under setting [6], 0.119 µM. Also, the “COX2 2 minutes pge2 area” value under setting [3] stood at 4.636. In addition, under setting [5], the “COX2 10 minutes pge2 area” value is recorded as 5.429.

For the molecule `COc1ncc(NCc2ccccn2)nc1-c1ccc(S(C)(=O)=O)cc1` [Compound 228], under setting [1], the “COX2 2 minutes pge2/pge2d4 area ratio Avg. LLE” value turned out to be 4.528. Besides, the IC50 by setting is: under setting [2], 2.12 µM; under setting [4], 1.8 µM. For the same molecule, the “COX2 2 minutes pge2 area” value under setting [3] was found to be 4.5985.

For the molecule `CS(=O)(=O)c1ccc(-c2cnc3cn(Cc4cccs4)nc3c2)cc1` [Compound 317], the IC50 under setting [7] amounted to 5.2 µM.

Take `CCCCOc1cncc(-c2ccc(S(C)(=O)=O)cc2)n1` [Compound 280]: the “COX2 2 minutes pge2/pge2d4 area ratio Avg. LLE” value under setting [1] is reported as 3.204. Besides, the “COX2 10 minutes pge2 area” value under setting [5] is given as 4.508. The IC50 was 0.258 µM under setting [6] and 5.2 µM under setting [7].

Turning to `COc1cc(S(C)(=O)=O)ccc1-c1cccc(NCc2ccoc2)n1` [Compound 297], the IC50 under setting [7] turned out to be 5.2 µM.

Take `CS(=O)(=O)c1ccc(-c2cc(OCc3cccs3)ncn2)cc1` [Compound 318]: the IC50 under setting [7] was determined as 5.2 µM.

`CS(=O)(=O)c1ccc(-c2cncc(OCc3cccs3)c2)cc1` [Compound 232]: the “COX2 2 minutes pge2/pge2d4 area ratio Avg. LLE” value under setting [1] is reported as 2.229. In addition, the IC50 amounted to 2.41 µM under setting [2] and 2.35 µM under setting [4]. For the same molecule, the “COX2 2 minutes pge2 area” value under setting [3] was determined as 2.107.

For `CS(=O)(=O)c1ccc(Oc2cccc(NCc3cccs3)n2)cc1` [Compound 310], under setting [7], the IC50 stood at 5.2 µM.

As to `CS(=O)(=O)c1ccc(-c2cncc(SC[C@H]3CCCO3)n2)cc1` (single isomer, unassigned) [Compound 154], the “COX2 2 minutes pge2/pge2d4 area ratio Avg. LLE” value under setting [1] is recorded as 4.687. Also, the IC50 is, setting by setting: under setting [2], 0.315 µM; under setting [4], 0.295 µM. The “COX2 2 minutes pge2 area” value under setting [3] came to 4.726.

In the case of `CS(=O)(=O)c1ccc(-n2ccc3ccc([C@H](O)c4cccs4)nc32)cc1` (single isomer, unassigned) [Compound 168], the IC50 under setting [2] stood at 0.437 µM and the IC50 under setting [4] came out at 0.425 µM.

Consider `CS(=O)(=O)c1ccc(-c2cc(S(C)(=O)=O)cc(NCc3cccs3)n2)cc1` [Compound 268], for which, under setting [1], the “COX2 2 minutes pge2/pge2d4 area ratio Avg. LLE” value worked out at 2.624. Also, the “COX2 2 minutes pge2 area” value under setting [3] is 2.624. Moreover, the IC50 under setting [7] came out at 5.2 µM.

In the case of `CS(=O)(=O)c1ccc(-c2nc(NCc3cccs3)cnc2C(N)=O)cc1` [Compound 257], under setting [1], the “COX2 2 minutes pge2/pge2d4 area ratio Avg. LLE” value amounted to 4.28. Further, the IC50 runs as follows: under setting [2], 4.09 µM; under setting [4], 3.49 µM. Also, the “COX2 2 minutes pge2 area” value under setting [3] was determined as 4.347.

As for `CS(=O)(=O)c1ccc(-c2nc(NCc3cccs3)ccc2S(C)(=O)=O)cc1` [Compound 265], under setting [1], the “COX2 2 minutes pge2/pge2d4 area ratio Avg. LLE” value is given as 2.641. Also, the IC50 under setting [2] stood at 4.81 µM. Under setting [3], the “COX2 2 minutes pge2 area” value is listed as 2.624.

For `CS(=O)(=O)c1ccc(-c2cncc(NCc3nccs3)n2)cc1` [Compound 203], the “COX2 2 minutes pge2/pge2d4 area ratio Avg. LLE” value under setting [1] was 4.216. The IC50 reads like this: under setting [2], 1.15 µM; under setting [4], 0.804 µM. Further, the “COX2 2 minutes pge2 area” value under setting [3] was 4.434.

In the case of `CS(=O)(=O)c1ccc(-c2cccc(NCc3cnoc3)n2)cc1` [Compound 136], the “COX2 2 minutes pge2/pge2d4 area ratio Avg. LLE” value under setting [1] is 5.1378. In addition, the IC50 is, setting by setting: under setting [2], 0.196 µM; under setting [4], 0.161 µM. The “COX2 2 minutes pge2 area” value under setting [3] was 5.206.

`COc1ncc(NCc2ccns2)nc1-c1ccc(S(C)(=O)=O)cc1` [Compound 102]: the “COX2 2 minutes pge2/pge2d4 area ratio Avg. LLE” value under setting [1] is reported as 5.647. Moreover, the IC50 turned out to be 0.0875 µM under setting [2] and 0.103 µM under setting [4]. For the same molecule, the “COX2 2 minutes pge2 area” value under setting [3] came to 5.572.

For `CS(=O)(=O)c1ccc(-c2cnc(N)c(NCc3cccs3)n2)cc1` [Compound 165], under setting [1], the “COX2 2 minutes pge2/pge2d4 area ratio Avg. LLE” value is listed as 4.592. For the same molecule, the IC50 is, setting by setting: under setting [2], 0.425 µM; under setting [4], 0.391 µM. For the same molecule, under setting [3], the “COX2 2 minutes pge2 area” value was found to be 4.629.

Source of the values: US20220348590A1, “CYCLOOXYGENASE-2 INHIBITORS AND USES THEREOF” (The Board Institute, Inc., priority 2019, published 2022).
